The text below walks through data of BindingDB's records for doi:10.1016/j.bmc.2008.07.022 (Universidade Federal De Lavras-Ufla, 2008).

Molecules are shown by their SMILES.

The target in the assay is cGMP-specific 3',5'-cyclic phosphodiesterase (Homo sapiens, UniProt O76074). Briefly: Inhibition of PDE5.

With `CCOc1ccc([C@H]2c3[nH]c4ccccc4c3Cc3c(O)n(Cc4cccnc4)c(=O)n32)cc1`, inhibition was half-maximal at 20 nM (IC50).

Take `CCOc1ccc([C@H]2c3[nH]c4ccccc4c3Cc3c(O)n(CCN(C)C)c(=O)n32)cc1`: half-maximal inhibition (IC50) required 30 nM.

For `CCOc1ccc([C@H]2c3[nH]c4ccccc4c3Cc3c(O)[nH]c(=O)n32)cc1`, it took 20 nM to reach half-maximal inhibition (IC50).

`CCOc1ccc([C@H]2c3[nH]c4ccccc4c3Cc3c(O)n(CCn4cccc4)c(=O)n32)cc1`: the IC50 – broadly, the concentration that gives 50% inhibition – is 100 nM.

Compound `CCCCn1c(O)c2n(c1=O)[C@H](c1ccoc1)c1[nH]c3ccccc3c1C2` [(3aR,10R)-2-Butyl-10-furan-3-yl-3a,4,9,10-tetrahydro-2,9,10a-triaza-cyclopenta[b]fluorene-1,3-dione] gave a half-maximal inhibitory concentration (IC50) of 100 nM.

The compound `CCCCn1c(O)c2n(c1=O)[C@H](c1ccsc1)c1[nH]c3ccccc3c1C2` [Cis-2-Butyl-10-thiophen-3-yl-3a,4,9,10-tetrahydro-2,9,10a-triaza-cyclopenta[b]fluorene-1,3-dione] yielded an IC50 of 30 nM.
